# Data from article doi:10.1101/2025.11.04.686469, “Discovery of Host-Directed Small Molecules with Broad Anti-Leishmanial Efficacy” (bioRxiv, 2025).
# Experiments:
# [1] = target: T1, lysozyme (Homo sapiens, UniProt P61626); experiment: Thermal proteome profiling in Leishmania infected macrophage lysate; format: binding; conditions: ligand 100 μM
# T1 construct: endogenous in cells; host or cells: THP-1 cells differentiated with PMA and infected with L. mexicana promastigotes; cell lysate
# T1 sequence (P61626 19-148): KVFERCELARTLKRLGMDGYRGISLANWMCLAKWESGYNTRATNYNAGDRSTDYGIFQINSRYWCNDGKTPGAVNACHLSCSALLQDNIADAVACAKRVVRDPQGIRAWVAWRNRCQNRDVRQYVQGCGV
# Method: To generate cell lysate, ten million THP-1 cells were plated overnight in a 10cm dish, then differentiated with 150 nM phorbol 12-myristate 13-acetate (PMA) for 72 hours. The resulting macrophages were infected with L. mexicana promastigotes at a multiplicity of infection of 10 and incubated for 18 hours. After infection, cells were washed three times with PBS to remove extracellular promastigotes. Cells were then collected by scraping and pelleted with centrifugation. The cell pellet was resuspended in phosphate buffered saline and subjected to five freeze-thaw cycles. Samples were centrifuged 14,000g x 10 minutes to remove cellular debris. Protein concentration of supernatant was determined by BCA assay and cell lysate was stored at −80 °C until further use.
# The cell lysate was divided into two portions. One portion was spiked with the 197 ligand in DMSO to generate the with ligand sample; and the other portion was spiked with DMSO to generate the without ligand sample. The final concentration of […] in the with ligand sample was 100 μM, and both the without and with ligand samples contained 1% DMSO. The with and without samples were each subjected five replicate one-pot TPP analyses like that previously described.[20–22] […]
# [2] = tested on: intracellular L. donovani in WT and Lys K/O BMDMs; experiment: 197 target validation: Giemsa staining in BMDMs from wild-type and lysozyme knockout mice; format: cell-based, Leishmania donovani; conditions: WT vs Lys K/O BMDMs
# From the text: B6.129P2-Lyz2^tm1(cre)Ifo/J mice[23] (stock #004781, herein termed ‘Lys K/O’) were obtained from Jackson Laboratory. This strain has a nuclear-localized Cre recombinase inserted into the first coding ATG of the lysozyme 2 gene (Lyz2) which eliminates endogenous Lyz2 gene function. Wildtype C57BL6/J mice (stock #000664) were obtained as a control.
# Bone marrow derived macrophages (BMDMs) were isolated from both mice and cultured as described above in “Image-based Evaluation of Intracellular Anti-Leishmanial Activity”. BMDMs were seeded onto glass cover slips, infected with LV82 L. donovani at a multiplicity of infection of 1:10. Cells were washed to remove extracellular promastigotes and treated with compounds (197, amphotericin B) for a 72-hour incubation. BMDM cells were then washed with phosphate buffered saline, fixed with ice-cold methanol, and stained with Giemsa (5% v/v in water). The cover slips with stained cells are mounted onto glass slides and imaged on EVOS XL (100X, Thermo Fisher Scientific). Leishmania amastigotes per 100 macrophages were determined in a blinded manner.
# [3] = tested on: intracellular L. donovani amastigotes; experiment: Luminescent-based evaluation of intracellular anti-leishmanial activity in THP-1 macrophages; format: cell-based, Leishmania donovani; conditions: Leishmania donovani, THP-1; THP1 macrophages, luminescence assay, 72 hours of treatment; read-out: Intracellular L. donovani amastigotes Lum IC50
# In short: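 PMA-differentiated THP-1 macrophages (150 nM, 72 h) were infected 18 h with firefly luciferase-expressing L. donovani LV82 promastigotes, then washed. Infected cells were treated with compounds at 0.1-10 μM for 72 h. Surviving intracellular amastigotes were quantified by firefly luciferase luminescence after cell lysis and 10 min substrate incubation at room temperature.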
compound,measurement,setting,value
O=C(CNCc1cccc(F)c1)Nc1ccc(-n2cc(C(F)(F)F)nc2-c2ccc(-c3ccc(C(F)(F)F)cc3)cc2)cc1 [Compound 197],TPP z-score for lysozyme,[1],4.32
same,anti-leishmanial activity in Lys K/O BMDMs,[2],notably decreased
same,IC50,[3],2.4 µM
